From US20090324718A1, “IMATINIB COMPOSITIONS” (priority 2006, published 2009) come the findings set out here.

Common to all, as to assay type: physicochemical
Data set [1] can be described thus: Chemical stability on storage: HPLC Assay and Impurities and Degradation Determination (IDD). To be noted: for Chemical: Assay: HPLC; for Chemical: main deg: HPLC IDD. As to the method:
The term “chemical stability” as used herein relates to the presence or absence of degradation products of the active pharmaceutical ingredient (API) as measure over time. Chemical stability is measured as the Assay of the material and/or the level of degradants. Stability is defined as having an Assay of at least about 90%, as determined by an HPLC assay method and/or having a minimum level of degradants, as determined by an HPLC Impurities and Degradation Determination (IDD) method over time. Preferably, a chemically stable composition as in the present inventor has an assay of at least 95%, more preferably at least 98%, as determined by an HPLC assay over time (storage time).
The stability of the examples described herein were tested using various analytical methods. One analytic method used is a determination using HPLC. The following HPLC method was used for the examples described below where HPLC was used as an analytic method.
(§1) The table below summarizes all test results (Assay, IDD, weight gain, and appearance). The appearance data is scored from 1 to 5 (1=very good (no change in color and texture of the sample), see an example of “Score=1” in Table 2, example 10, Day 0, 5=not good (changed both in color (became yellow) and in texture (absorbed water and reduced shine of sample)), see an example of “Score=4-5” in Table 2, example 9, time Day 5), and is supported by pictures presented in Table 2.

Data set [2] is described as follows: Physical stability on storage: appearance score (color and texture). Also noted: key to Appearance, scale: 1 = good 5 = bad / Appearance / Appearance t = 7 days / Appearance t = 14 days: 1=very good (no change in color and texture of the sample); 5=not good (changed both in color (became yellow) and in texture (absorbed water and reduced shine of sample)). Conditions: for Appearance, scale: 1 = good 5 = bad: 55° C./75% RH Day 0; for Appearance: 55° C./75% RH Day 5; for Appearance t = 7 days / Appearance t = 14 days / Appearance t = 28 days: 40° C./75% RH.
From the text: As used herein the term “physical stability” of a composition means the appearance of the composition is substantially unchanged and/or the hygroscopicity is low.
The term “appearance” as used herein describes the color and texture of a composition. The color of a composition according to a scored scale, as assessed by one of ordinary skill in the art in view of the following guidelines. A discoloration score of 1 indicates material without discoloration, whereas a discoloration score of 5 indicates severe discoloration (almost complete discoloration) relative to the color of the material as obtained after preparation and prior to storage. In the present invention the composition preferably has a white color immediately after processing and generally remains white if stable. Discoloration to a yellow color is typical when the composition is unstable. Similarly, a texture score of 1 indicates material having an uniform and smooth texture, whereas a texture score of 5 indicates a nonuniform and rough texture. The texture may be determined by visual inspection by one of ordinary skill in the art. For both discoloration and texture, scores 2 to 4 represent 5 “some or slight (change)” for a score of 2, “medium (change)” for a score of 3, and “substantial (change)” for a score of 4.
as §1

A short description of data set [3]: Physical form of the active drug in the sample. Conditions: 55° C./75% RH Day 0.
Data set [4] can be described thus: Hygroscopicity of imatinib depending on the physical structure of the active drug.
A short description of data set [5]: Gain of weight (moisture uptake) on storage at 40° C./75% RH. The source says: Texture is often highly correlated with hygroscopicity. Water/moisture absorption tends to reduce shine, for example. Water hygroscopicity can be determined by weight gain analyses.
Embodiments of the invention are preferably packaged with a desiccant, such as silica. The container preferably has a high moisture barrier, examples of which are known in the art. In a preferred packaged pharmaceutical composition of the present invention an amount of desiccant which will assure a weight gain due to moisture of not more than (NMT) 5%, preferably 0.5%, more preferably 0.05%, is preferred in order to maintain a good appearance and low water absorption for a maximum period of time. For example, the weight gain of the packaged material of the present invention after storage (i) at a temperature of about 55° C. and about 75% relative humidity for 5 days, and/or (ii) at a temperature of about 40° C. and about 75% relative humidity for 30 days, is less than about 15%, preferably less than about 10%, more preferably less than about 5% by weight.

Counter-ions that a name gives are not always drawn.

With `Cc1ccc(NC(=O)c2ccc(CN3CCN(C)CC3)cc2)cc1Nc1nccc(-c2cccnc2)n1` [Active drug (Amorphous), imatinib mesylate], in data set [1] (55° C./75% RH Day 0), the “Chemical: Assay” value came to 88.6 and the “Chemical: main deg” value is recorded as 0.46. Also, in data set [1] (55° C./75% RH Day 5), the “Chemical: Assay” value is 97.8 and the “Chemical: main deg” value is listed as 0.44. For the same compound, in data set [2], the “Appearance, scale: 1 = good 5 = bad” value came out at 1 and the Appearance worked out at 5. The Physical result in data set [3] is given as “amrph”. Moreover, the “hygroscopicity compared to crystalline material” value in data set [4] was “much more hygroscopic”.

Consider `Cc1ccc(NC(=O)c2ccc(CN3CCN(C)CC3)cc2)cc1Nc1nccc(-c2cccnc2)n1` [Active drug (Crystalline 1), imatinib mesylate], for which, in data set [1] (55° C./75% RH Day 0), the “Chemical: Assay” value is reported as 97.5 and the “Chemical: main deg” value worked out at 0.12. In data set [1] (55° C./75% RH Day 5), the “Chemical: Assay” value is 98.8 and the “Chemical: main deg” value is 0.12. Moreover, in data set [2], the “Appearance, scale: 1 = good 5 = bad” value worked out at 1 and the Appearance is reported as 1. Further, the Physical result in data set [3] is recorded as “Alpha”.

For `Cc1ccc(NC(=O)c2ccc(CN3CCN(C)CC3)cc2)cc1Nc1nccc(-c2cccnc2)n1` [Active drug (Crystalline 2), imatinib mesylate], in data set [1] (55° C./75% RH Day 0), the “Chemical: Assay” value was found to be 94.5 and the “Chemical: main deg” value worked out at 0.11. In data set [1] (55° C./75% RH Day 5), the “Chemical: Assay” value was 98.8 and the “Chemical: main deg” value is 0.13. In addition, in data set [2], the “Appearance t = 7 days” value was determined as 1; the “Appearance t = 14 days” value is listed as 1-2; the “Appearance t = 28 days” value turned out to be 3; the “Appearance, scale: 1 = good 5 = bad” value is listed as 1. This compound had an Appearance in data set [2] of 4. Further, in data set [5], the “Wt gain T = 7 days” value was determined as 21.49%, the “Wt gain T = 14 days” value came out at 17.75% and the “Wt gain T = 28 days” value was found to be 18.3%.

Consider `Cc1ccc(NC(=O)c2ccc(CN3CCN(C)CC3)cc2)cc1Nc1nccc(-c2cccnc2)n1` [Active drug (Crystalline 2) Packed with silica] [imatinib mesylate], for which, in data set [2], the “Appearance t = 7 days” value is reported as 1, the “Appearance t = 14 days” value was determined as 1 and the “Appearance t = 28 days” value stood at 2. In addition, in data set [5], the “Wt gain T = 7 days” value stood at 12.42%, the “Wt gain T = 14 days” value stood at 7.79% and the “Wt gain T = 28 days” value came to 8.86%.
